US20240279176A1, “SUBSTITUTED TRICYCLIC HETEROCYCLIC COMPOUNDS AS METALLO-BETA-LACTAMASE INHIBITORS” (priority 2021, published 2024)
Where two headings read alike, the source gives them in different places.

What was measured:
[1] = target: IMP-1 (Serratia marcescens, UniProt P52699); experiment: Enzyme activity: IC50 in fluorescence assay with cephalosporin substrate FC5; assay type: biochemical; details: 100 pM IMP-1, 10 μM FC5, 10 min pre-incubation
Protocol: (§1) The Class B beta-lactamases activities were measured in the presence of the test inhibitors in a fluorescence assay against an in-house synthesized fluorescent cephalosporin substrate FC5 (Berkel, et. al. J. Med. Chem. 2013, 56(17), 6945). The enzymes (NDM-1, IMP-1) and the substrate were diluted in 20 mM HEPES, pH 7.4, supplemented with 300 mM NaCl and 10 μM ZnSO4. In the assay, the final concentration of enzyme was 50 pM, and 100 pM for NDM-1, and IMP-1 respectively, and the final concentration of FC5 was 1.5 μM for NDM-1 and 10 μM for IMP-1. The test inhibitors/compounds were dissolved in dimethylsulfoxide (DMSO) and diluted in the assay with assay buffer (20 mM HEPES, pH 7.4, supplemented with 5% DMSO, 300 mM NaCl and 10 μM ZnSO4), resulting in a final concentration range of 0.008 μM to 25 μM. The assays were performed in 96-well microplate (flat bottom, black). The test inhibitors were incubated with the MBL enzyme for 10 min at room temperature, followed by addition the substrate and the fluorescence was recorded immediately (λex 380 nm, λem 460 nm) on a microplate reader. Using the initial velocity data plotted against the inhibitor concentration, the half-maximal inhibitory concentrations were calculated by an IC50 curve-fitting model in GraphPad Prism 9 software.

[2] = target: NDM-1 (Klebsiella pneumoniae, UniProt C7C422); experiment: as above; assay type: biochemical; details: 50 pM NDM-1, 1.5 μM FC5, 10 min pre-incubation
Protocol: as §1

[3] = system: Klebsiella pneumoniae ATCC BAA-2146; experiment: Minimum inhibitory concentration (MIC), broth-microdilution (CLSI); assay type: cell-based
From the text: (§2) The strain included in the study was Klebsiella pneumoniae ATCC BAA-2146 (Himedia®, India) with presence of New Delhi metallo-β-lactamase (NDM-1) gene. The quality control reference strains Escherichia coli ATCC 25922 and Pseudomonas aeruginosa ATCC 27853 were procured from Himedia®, India.
MIC values were identified through broth-microdilution in sterilized 96-well polystyrene flat-bottom microtitre plates (Cole-Parmer®) according to the guideline of the Clinical and Laboratory Standards Institute (CLSI) (CLSI; Methods for dilution antimicrobial susceptibility tests for bacteria that grow aerobically; Clinical Laboratory Standards Institute, M07-A09, 2012). This method involves the use of BBL™ Cation-adjusted Mueller-Hinton II Broth (CA-MHB; BD) and the strain (Klebsiella pneumoniae ATCC BAA-2146) concentration was adjusted to 5×10^5 CFU/mL. After 16-18 h of incubation at various concentrations of Imipenem, Meropenem (Alfa Aesar), or test compounds at 37° C., MIC was defined as the lowest concentration of antibiotic or test compound with no visible growth.

[4] = system: Klebsiella pneumoniae ATCC BAA-2146; experiment: Checkerboard synergy assay in combination with Meropenem; assay type: cell-based; details: K. pneumoniae ATCC BAA-2146; for Fold reduction in meropenem MIC in the presence of compounds (μg/mL) 4: compound at 4 μg/mL; for Fold reduction in meropenem MIC in the presence of compounds (μg/mL) 8: compound at 8 μg/mL; for Fold reduction in meropenem MIC in the presence of compounds (μg/mL) 16: compound at 16 μg/mL; for Fold reduction in meropenem MIC in the presence of compounds (μg/mL) 32: compound at 32 μg/mL
From the text: as §2
(§3) The fold modulation activity of test compounds, in combination with Imipenem or Meropenem, was checked against Klebsiella pneumoniae ATCC BAA-2146 strain by the broth-microdilution checkerboard synergy assay. The plates contained 5×10^5 CFU/mL bacterial inocula and 2-fold serial dilutions of the antibiotics (128-2 μg/mL) as well as test compounds (32-4 μg/mL) in a total volume of 200 μL of CA-MHB. Dimethyl sulfoxide (DMSO, ≤2.5%) was included as vehicle control. Following 16-18 h of incubation at 37° C., the MICs of antibiotics as well as drug combinations were visually inspected.

[5] = system: Klebsiella pneumoniae ATCC BAA-2146; experiment: Checkerboard synergy assay in combination with Imipenem; assay type: cell-based; details: K. pneumoniae ATCC BAA-2146; for Fold reduction in Imipenem MIC in the presence of compounds (μg/mL) 4: compound at 4 μg/mL; for Fold reduction in Imipenem MIC in the presence of compounds (μg/mL) 8: compound at 8 μg/mL; for Fold reduction in Imipenem MIC in the presence of compounds (μg/mL) 16: compound at 16 μg/mL; for Fold reduction in Imipenem MIC in the presence of compounds (μg/mL) 32: compound at 32 μg/mL
From the text: as §2, §3

[6] = ATCCBAA2146, compound alone, Imipenem series, K. pneumoniae ATCC BAA-2146, read-out: Intrinsic MIC
[7] = ATCCBAA2146, compound alone, meropenem series, K. pneumoniae ATCC BAA-2146, read-out: Intrinsic MIC

Chain of IMP-1 (P52699 19-246, looked up, species assumed): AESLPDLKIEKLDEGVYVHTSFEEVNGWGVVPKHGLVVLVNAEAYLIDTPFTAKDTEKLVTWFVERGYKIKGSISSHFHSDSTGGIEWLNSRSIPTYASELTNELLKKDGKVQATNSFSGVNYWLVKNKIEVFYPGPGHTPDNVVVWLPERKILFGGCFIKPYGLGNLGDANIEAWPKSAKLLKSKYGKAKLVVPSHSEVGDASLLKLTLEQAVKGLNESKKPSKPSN
Chain of NDM-1 (C7C422 29-270, looked up): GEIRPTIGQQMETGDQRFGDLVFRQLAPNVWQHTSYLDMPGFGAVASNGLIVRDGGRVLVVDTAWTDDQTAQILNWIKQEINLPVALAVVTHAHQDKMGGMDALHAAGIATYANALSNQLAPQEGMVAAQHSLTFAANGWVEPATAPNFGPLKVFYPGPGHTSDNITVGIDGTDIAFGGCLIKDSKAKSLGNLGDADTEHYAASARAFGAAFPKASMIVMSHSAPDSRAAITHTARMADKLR

| Compound | IC50 [1] [µM] | IC50 [2] [µM] | MIC [3, 6] [µg/mL] | MIC [3, 7] [µg/mL] | Fold reduction in meropenem MIC in the presence of compounds (μg/mL) 4 [4] [fold] | Fold reduction in meropenem MIC in the presence of compounds (μg/mL) 8 [4] [fold] | Fold reduction in meropenem MIC in the presence of compounds (μg/mL) 16 [4] [fold] | Fold reduction in meropenem MIC in the presence of compounds (μg/mL) 32 [4] [fold] | Fold reduction in Imipenem MIC in the presence of compounds (μg/mL) 4 [5] [fold] | Fold reduction in Imipenem MIC in the presence of compounds (μg/mL) 8 [5] [fold] | Fold reduction in Imipenem MIC in the presence of compounds (μg/mL) 16 [5] [fold] | Fold reduction in Imipenem MIC in the presence of compounds (μg/mL) 32 [5] [fold] | MIC ([3]; ATCCBAA2146, antibiotic alone, read-out: MIC of meropenem against Klebsiella pneumoniae ATCC BAA-2146) [µg/mL] |
| --- | --- | --- | --- | --- | --- | --- | --- | --- | --- | --- | --- | --- | --- |
| O=C(O)c1[nH]c2c(c1-c1cc(Cl)cc(Cl)c1)CCc1ccccc1-2 [Example 2, 3-(3,5-dichlorophenyl)-4,5-dihydro-1H-benzo[g]indole-2-carboxylic Acid] | 0.026 | 0.036 | > 64 | > 128 | 4 | 8 | 8 | 16 |  |  |  |  |  |
| O=C(O)c1[nH]c2c(c1-c1cccc(Cl)c1)CCc1ccccc1-2 [Example 45, 3-(3-chlorophenyl)-4,5-dihydro-1H-benzo[g]indole-2-carboxylic Acid] |  | 0.132 | > 128 | > 128 | 2 | 4 | 4 | 8 | 2 | 4 | 8 | 8 |  |
| Cc1ccc(-c2c(C(=O)O)[nH]c3c2CCc2ccccc2-3)c(F)c1 [Example 49, 3-(2-fluoro-4-methylphenyl)-4,5-dihydro-1H-benzo[g]indole-2-carboxylic Acid] | 2.05 | 0.319 | > 128 | > 128 | 2 | 2 | 4 | 4 |  |  |  |  |  |
| Cc1cc(Cl)cc(-c2c(C(=O)O)[nH]c3c2CCc2ccccc2-3)c1 [Example 57, 3-(3-chloro-5-methylphenyl)-4,5-dihydro-1H-benzo[g]indole-2-carboxylic Acid] |  | 1.6 | > 128 | > 128 | 4 | 4 | 8 | 8 | 4 | 8 | 8 | 16 |  |
| O=C(O)c1[nH]c2c(c1-c1cc(F)cc(Cl)c1)CCc1ccccc1-2 [Example 58, 3-(3-chloro-5-fluorophenyl)-4,5-dihydro-1H-benzo[g]indole-2-carboxylic Acid] | 0.869 | 0.009 | > 128 | > 128 |  |  |  |  | 4 | 8 | 8 | 16 |  |
| O=C(O)c1[nH]c2c(c1-c1cc(Cl)c(Cl)c(Cl)c1)CCc1ccccc1-2 [Example 60, 3-(3,4,5-trichlorophenyl)-4,5-dihydro-1H-benzo[g]indole-2-carboxylic Acid] | 1.56 |  | > 128 | > 128 | 4 | 8 | 8 | 8 | 4 | 8 | 8 | 16 |  |
| COc1cc(F)cc(-c2c(C(=O)O)[nH]c3c2CCc2ccccc2-3)c1 [Example 62, 3-(3-fluoro-5-methoxyphenyl)-4,5-dihydro-1H-benzo[g]indole-2-carboxylic Acid] | 3.45 | 0.196 | > 128 | > 128 |  |  |  |  | 4 | 4 | 8 | 8 |  |
| O=C(O)c1[nH]c2c(c1-c1ccccc1)CCc1ccccc1-2 [Example 63, 3-phenyl-4,5-dihydro-1H-benzo[g]indole-2-carboxylic Acid] | 4.05 | 2.36 | > 128 | > 128 |  |  |  |  | 4 | 4 | 8 | 8 |  |
| CC1Cc2c([nH]c(C(=O)O)c2-c2cc(F)cc(Cl)c2)-c2ccccc21 (stereo not shown) [Example 64, 3-(3-chloro-5-fluorophenyl)-5-methyl-4,5-dihydro-1H-benzo[g]indole-2-carboxylic Acid] | 0.821 | 1.42 | > 128 | > 128 |  |  |  |  | 4 | 4 | 8 | 8 |  |
| C[C@@H](O)[C@H]1C(=O)N2C(C(=O)O)=C(S[C@@H]3CN[C@H](C(=O)N(C)C)C3)[C@H](C)[C@H]12 [meropenem, reference compound] |  |  |  |  |  |  |  |  |  |  |  |  | 128 |
